The values below come from patent US6828450B2, “Triptycene analogs” (Kansas State University Research Foundation, priority 2000, dated 2004).

Common to all, as to type: cell-based, human
For test [1], the system named is HL-60-S cells. As to the kind of experiment: HL-60-S cell proliferation assay. The source says: (§1) The MDR HL-60-RV and HL-60-R8 cells were developed in Melvin S. Center's laboratory (Kansas State University) and similarly maintained in RPMI 1640 medium in the absence of drugs (Marsh W, et al, Cancer Res 46: 4053-4057, 1986; McGrath T et al, and Center M S: Biochem Biophys Res Commun 145: 1171-1176, 1987; Marsh W and Center M S: Cancer Res 47: 5080-5086, 1987; McGrath T, et al, Biochem Pharmacol 38: 3611-3619, 1989; Marquardt D, et al, Cancer Res 50: 1426-1430, 1990; Marquardt D and Center M S: J Natl Cancer Inst 83: 1089-1109, 1991; Krishnamachary N and Center M S; Cancer Res 53: 3658-3661, 1993). Every 4 weeks, these HL-60-RV and HL-60-R8 sublines were exposed to 41 nM DAU for 48 h to stabilize their MDR phenotype. This concentration of DAU, which is not cytotoxic to MDR HL-60 sublines, was removed from the culture medium at least 48 h before experimentation. […] RFs were determined by dividing the IC50 of the MDR cells by that of the sensitive WT parent cell line.

The subject of a further test is HL-60-R8 cells. Briefly: DNA cleavage in HL-60-R8 cells. The note with it: HL-60-R8, 24 h. As to the method: FIG. 23. Comparison of the concentration-dependent inductions of DNA cleavage by DAU (open symbols in A) and TT2 (closed symbols in B) at 24 h in HL-60-S (circles), HL-60-RV (squares) and HL-60-R8 (triangles) cells containing ^3H-prelabeled DNA in vitro. Results are expressed as [cpm in supernatant/cpm in supernatant+pellet]×100 at 24 h. For untreated controls (14.7±1.7% DNA fragmentation, striped areas), the supernatant (DNA fragments) is 12,815±1,358 cpm and the pellet (intact DNA) is 74,406±9,078 cpm.
as §1, with “phenotype.” for “phenotype. This concentration of DAU, which is not cytotoxic to MDR HL-60 sublines, was removed from the culture medium at least 48 h before experimentation.”, “line. […]” for “line.”

Test [2] concerns HL-60-S cells. Briefly: Nucleoside transport in HL-60-S cells. Conditions: for IC50: 15-min preincubation, 30 s.
Excerpt: (§2) FIG. 15. Comparison of the concentration-dependent inhibitions of the cellular transport of purine (A) and pyrimidine (B) nucleosides by DAU (open symbols) and TT2 (closed symbols) in HL-60-S (circles), HL-60-RV (squares) and HL-60-R8 (triangles) cells in vitro. Results are expressed as % of ^3H-adenosine (26,032±2,239 cpm, 100±9%, striped area in A) and ^3H-thymidine (17,934±1,398 cpm, 100±8%, striped area in B) transported into vehicle-treated control cells over 30 s.
as §1
(§3) L1210 cells (about 1.5×10^6 cells/0.5 ml) were preincubated for 15 min at 37° C. in the presence or absence of TTs and then exposed to 1 μCi of ^3H-thymidine for only 30 sec to assess the cellular uptake of nucleoside over such very short period of time. […] Cell lysates were mixed with 9 ml of Bio-Safe II (Researeh Products International) and counted to estimate the cellular uptake of ^3H-thymidine. Drug inhibition was expressed as % of ^3H-thymidine or ^3H-adenosine transported into vehicle-treated control cells over similar 30-sec period.

The next test deals with HL-60-RV cells. Briefly: Nucleoside transport in HL-60-RV cells. Conditions: for IC50: 15-min preincubation, 30 s.
Excerpt: as §2, §1
as §3, with “time. HL-60-S, HL-60-RV and HL-60-R8 cells (1.2×10^6 cells/0.5 ml) were preincubated for 15 min at 37° C. in the presence or absence (control) of drugs and then exposed to 1 μCi of [2,8-^3H]adenosine (30 Ci/mmol; American Radiolabeled Chemicals, St. Louis, Mo.) or [methyl-^3H]thymidine (50 Ci/mmol; Amersham, Arlington Heights, Ill.) for only 30 s to, respectively, assess the cellular uptake of purine and pyrimidine nucleosides over such very short period of time Reactions were diluted with 2 ml of ice-cold Ca^2+/Mg^2+-free Dulbecco's phosphate buffered saline (PBS) and the unincorporated radiolabel was removed by centrifugation at 200×g for 10 min.” for “time.”

Where two headings read alike, the source gives them in different places.

Consider `COC1=CC(=O)C2=C(C1=O)C1C3=C(C(=O)C=CC3=O)C2c2ccccc21` (stereo not drawn) [TT2, 2-Methoxy-9,10-dihydro-9,10-[1′,2′]benzenoanthracene-1,4,5,8-tetraone], for which the “times TT2 inhibits tumor cell growth less effectively than DAU” value in the test on HL-60-S cells [1] (HL-60-S) amounted to 33 times. The IC50 was 260 to 300 nM in the test with HL-60-S cells [1] (HL-60-S, HL-60-RV and HL-60-R8, day 4, read-out: IC50 values, inhibition of cell proliferation, range over the three lines); 400 nM in the test with HL-60-S cells [1] (day 2, read-out: IC50, inhibition of HL-60-S cell proliferation); 300 nM in the test on HL-60-S cells [1] (day 4, read-out: IC50, inhibition of HL-60-S cell proliferation); 3300 nM in the test with HL-60-S cells [2] (purine nucleoside, read-out: IC50, cellular transport of 3H-adenosine in HL-60-S cells); 2000 nM with HL-60-S cells [2] (pyrimidine nucleoside, read-out: IC50, cellular transport of 3H-thymidine in HL-60-S cells); 3200 nM in the test with HL-60-RV cells (purine nucleoside, read-out: IC50, cellular transport of 3H-adenosine in HL-60-RV cells). Also, the IC50 in the test with HL-60-RV cells (pyrimidine nucleoside, read-out: IC50, cellular transport of 3H-thymidine in HL-60-RV cells) was 2000 nM. Further, in the test with HL-60-R8 cells, the “reduction of the peak of maximal DNA cleavage relative to HL-60-S cells” value turned out to be 35%. The “RFs, nucleoside transport” value with HL-60-RV cells (HL-60-RV and HL-60-R8 vs HL-60-S, adenosine and thymidine) was 1.0-1.2.

On to `COc1cccc2c1C(=O)c1c(O)c3c(c(O)c1C2=O)C[C@@](O)(C(C)=O)C[C@@H]3O[C@H]1C[C@H](N)[C@H](O)[C@H](C)O1` [DAU, daunomycin, reference compound], for which the IC50 turned out to be 14 nM in the test with HL-60-S cells [1] (Homo sapiens, 48 h, read-out: IC50, inhibition of HL-60-S cell proliferation) and 9 nM in the test with HL-60-S cells [1] (Homo sapiens, 96 h, read-out: IC50, inhibition of HL-60-S cell proliferation). Also, the “reduction of the peak of maximal DNA cleavage relative to HL-60-S cells” value with HL-60-R8 cells is given as 60%. The “effect on nucleoside transport in WT HL-60-S cells” value in the test on HL-60-S cells [2] is listed as “fails to significantly inhibit”. In the test on HL-60-RV cells (HL-60-RV and HL-60-R8), the “effect on nucleoside transport in the two MDR sublines” value is recorded as “unable”.
